Patent EP0428132A1, “Pradimicin derivatives” (Bristol-Myers Squibb Company, priority 1989, dated 1991)
Converted amounts (≈) assume the structure as drawn. Counter-ions that a name gives are not always drawn. Like-named read-outs stand apart in the source and are kept apart here. Marks after values point to notes of the source that are not given here.

Columns and labels:
Candida albicans A25578 = test: In vitro antifungal activity, serial agar dilution method (Table 1a); assay type: cell-based
Method: (§1) The inoculum size was adjusted to 10⁶ cells/ml, and a volume of approximately 0.003 ml of fungal suspension was applied to the surface of the antibiotic containing agar plates with a multiinoculator. After incubation, the lowest concentration of antibiotic causing virtually complete inhibition of fungal growth was determined as the minimum inhibitory concentration (MIC).

Candida albicans A9540 [1] = test: as above; assay type: cell-based
Method: as §1

[2] = test system: Candida paratropicalis A25825; test: as above; assay type: cell-based
Method: as §1

[3] = test system: Candida pseudotropicalis A25802; test: as above; assay type: cell-based; details: Kluyveromyces marxianus, YM agar (pH 7.0, Difco), 30°C for 2 days (yeast) or 4 days (filamentous fungi), read-out: MICs, Candida pseudotropicalis A25802
Method: as §1

[4] = test system: Candida tropicalis A25809; test: as above; assay type: cell-based; details: YM agar (pH 7.0, Difco), 30°C for 2 days (yeast) or 4 days (filamentous fungi), read-out: MICs, Candida tropicalis A25809
Method: as §1

[5] = test system: Candida tropicalis A25812; test: as above; assay type: cell-based
Method: as §1

[6] = test system: Cryptococcus neoformans A15053; test: as above; assay type: cell-based
Method: as §1

[7] = test system: Microsporum canis WW10218; test: as above; assay type: cell-based; details: WW10218, pH 7, read-out: MICs, Microsporum canis WW10218
Method: as §1

[8] = test system: Microsporum gypseum WW1107; test: as above; assay type: cell-based; details: Nannizzia gypsea, YM agar (pH 7.0, Difco), 30°C for 2 days (yeast) or 4 days (filamentous fungi), read-out: MICs, Microsporum gypseum WW1107
Method: as §1

[9] = test system: Saccharomyces cerevisiae A25803; test: as above; assay type: cell-based; details: YM agar (pH 7.0, Difco), 30°C for 2 days (yeast) or 4 days (filamentous fungi), read-out: MICs, Saccharomyces cerevisiae A25803
Method: as §1

[10] = test system: Trichophyton mentagrophytes A26771; test: as above; assay type: cell-based
Method: as §1

[11] = test system: Trichophyton rubrum A26761; test: as above; assay type: cell-based; details: A26761, pH 7, read-out: MICs, Trichophyton rubrum A26761
Method: as §1

Candida albicans A9540 [12] = test: Intravenous Candida albicans infection mouse model, Table 2 part B; assay type: in vivo, mice
Method: Several compounds were also evaluated in an intravenous Candida albicans […] infection mouse model. The test organism was suspended in saline approximately 10 times the median lethal dose of the fungus (10⁶ cells/mouse) were used to infect intravenously male ICR mice weighing 20 to 24 g. Groups of five mice at each dose level were given the test compounds intravenously or intramuscularly. The 50% protective dose (PD₅₀) was calculated from survival rates recorded 20 or 21 days after the fungal challenge. […]

[13] = Water solubility, protocol I (PBS, HPLC); assay type: physicochemical; details: Method I: PBS without CaCl₂ and MgCl₂.6H₂O
Method: The supernatant (2 µL) was analyzed by HPLC using the conditions specified for each compound in the Experimental Section. […] When not soluble, an additional amount of PBS (x µL) was added, sonicated, and centrifuged. When visibly soluble, the solution (2 µL) was injected to HPLC and the peak area was used for the known concentration of the sample.

M. gypseum A22810 = test: In vitro antifungal activity, serial agar dilution method (Table 1a, footnote strain 1); assay type: cell-based, Microsporum gypseum; details: Nannizzia gypsea, strain per footnote **1, YM agar (pH 7.0, Difco), 30°C for 2 days (yeast) or 4 days (filamentous fungi), read-out: MICs, M. gypseum A22810
Method: as §1

T. rubrum A24195 = test: In vitro antifungal activity, serial agar dilution method (Table 1a, footnote strain 2); assay type: cell-based; details: Trichophyton rubrum, A24195, pH 7, read-out: MICs, T. rubrum A24195
Method: as §1

T. mentagrophytes A22838 = test: In vitro antifungal activity, serial agar dilution method (Table 1a, footnote strain 3); assay type: cell-based; details: Trichophyton mentagrophytes, strain per footnote **3, YM agar (pH 7.0, Difco), 30°C for 2 days (yeast) or 4 days (filamentous fungi), read-out: MICs, T. mentagrophytes A22838
Method: as §1

M. gypseum A26835 = test: In vitro antifungal activity, serial agar dilution method (Table 1a, footnote strain 4); assay type: cell-based, Microsporum gypseum; details: Nannizzia gypsea, A26835, pH 7, read-out: MICs, M. gypseum A26835
Method: as §1

M. canis A26834 = test: In vitro antifungal activity, serial agar dilution method (Table 1a, footnote strain 5); assay type: cell-based; details: Microsporum canis, A26834, pH 7, read-out: MICs, M. canis A26834
Method: as §1

[14] = A25578, YM agar (pH 7.0, Difco), 30°C for 2 days (yeast) or 4 days (filamentous fungi), read-out: MICs, Candida albicans A25578
[15] = A9540, YM agar (pH 7.0, Difco), 30°C for 2 days (yeast) or 4 days (filamentous fungi), read-out: MICs, Candida albicans A9540
[16] = YM agar (pH 7.0, Difco), 30°C for 2 days (yeast) or 4 days (filamentous fungi), read-out: MICs, Candida paratropicalis A25825
[17] = A25812, YM agar (pH 7.0, Difco), 30°C for 2 days (yeast) or 4 days (filamentous fungi), read-out: MICs, Candida tropicalis A25812
[18] = A15053, YM agar (pH 7.0, Difco), 30°C for 2 days (yeast) or 4 days (filamentous fungi), read-out: MICs, Cryptococcus neoformans A15053
[19] = A26771, YM agar (pH 7.0, Difco), 30°C for 2 days (yeast) or 4 days (filamentous fungi), read-out: MICs, Trichophyton mentagrophytes A26771

| SMILES | MIC (Candida albicans A25578; [14]) | MIC (Candida albicans A9540 [1]; [15]) | MIC [2, 16] | MIC [3] | MIC [4] | MIC [5, 17] | MIC [6, 18] | MIC [7] | MIC [8] | MIC [9] | MIC [10, 19] | MIC [11] | solubility [13] | other results |
| --- | --- | --- | --- | --- | --- | --- | --- | --- | --- | --- | --- | --- | --- | --- |
| COc1cc(O)c2c(c1)C(=O)c1c(cc3c(c1O)-c1c(cc(C)c(C(=O)N[C@H](C)C(=O)O)c1O)[C@H](O[C@@H]1O[C@H](C)[C@H](N(C)CC(=O)O)[C@H](O)[C@H]1O)[C@H]3O)C2=O [Ex. 4, N-carboxymethyl pradimicin B] | 1.6 µg/mL (≈ 2.09 µM) | 3.2 µg/mL (≈ 4.17 µM) | 3.2 µg/mL (≈ 4.17 µM) | 1.6 µg/mL (≈ 2.09 µM) | 1.6 µg/mL (≈ 2.09 µM) | 3.2 µg/mL (≈ 4.17 µM) | 1.6 µg/mL (≈ 2.09 µM) | 6.3 µg/mL (≈ 8.22 µM) | 25 µg/mL (≈ 32.6 µM) | 0.8 µg/mL (≈ 1.04 µM) | 12.5 µg/mL (≈ 16.3 µM) | 12.5 µg/mL (≈ 16.3 µM) | > 10000 µg/mL | PD₅₀ (Candida albicans A9540 [12]; mouse, in vivo): >50** mg/kg |
| COc1cc(O)c2c(c1)C(=O)c1c(cc3c(c1O)-c1c(cc(C)c(C(=O)N[C@H](C)C(=O)O)c1O)[C@H](O[C@@H]1O[C@H](C)[C@H](N(C)CC(N)=O)[C@H](O)[C@H]1O)[C@H]3O)C2=O [Ex. 5, N-(carbamoylmethyl) pradimicin B] | 0.8 µg/mL (≈ 1.04 µM) | 3.2 µg/mL (≈ 4.18 µM) | 3.2 µg/mL (≈ 4.18 µM) | 0.8 µg/mL (≈ 1.04 µM) | 0.8 µg/mL (≈ 1.04 µM) | 3.2 µg/mL (≈ 4.18 µM) | 0.8 µg/mL (≈ 1.04 µM) | 1.6 µg/mL (≈ 2.09 µM) | 3.2 µg/mL (≈ 4.18 µM) | 0.8 µg/mL (≈ 1.04 µM) | 1.6 µg/mL (≈ 2.09 µM) | 1.6 µg/mL (≈ 2.09 µM) | > 4000 µg/mL | PD₅₀ (Candida albicans A9540 [12]; Part B: route IV, at 1 and 3.5 hrs after infection and twice on the following day, 21 days after fungal challenge, method of Spearman-Karber, male ICR mice): >50** mg/kg |
| COc1cc(O)c2c(c1)C(=O)c1c(cc3c(c1O)-c1c(cc(C)c(C(=O)N[C@H](C)C(=O)O)c1O)[C@H](O[C@@H]1O[C@H](C)[C@H](N(C)C(=O)CN)[C@H](O)[C@H]1O)[C@H]3O)C2=O [Ex. 14, N-(glycyl) pradimicin B formate salt] | 3.2 µg/mL | 3.2 µg/mL | 3.2 µg/mL | 1.6 µg/mL | 3.2 µg/mL | 3.2 µg/mL | 1.6 µg/mL |  |  | 1.6 µg/mL |  |  |  | MIC (M. gypseum A22810): 3.2 µg/mL; MIC (T. rubrum A24195): 1.6 µg/mL; MIC (T. mentagrophytes A22838): 1.6 µg/mL |
| CNC(=O)N(C)[C@@H]1[C@H](O)[C@@H](O)[C@H](O[C@H]2c3cc(C)c(C(=O)N[C@H](C)C(=O)O)c(O)c3-c3c(cc4c(c3O)C(=O)c3cc(OC)cc(O)c3C4=O)[C@@H]2O)O[C@@H]1C [Ex. 18, N-(N-methylcarbamoyl) pradimicin B] |  |  |  | 3.2 µg/mL (≈ 4.18 µM) |  |  |  |  |  |  |  | > 50 µg/mL | 4000 µg/mL (≈ 5220 µM) | MIC (Candida albicans A25578; A25578, pH 7, read-out: MICs, Candida albicans A25578): 25 µg/mL (≈ 32.6 µM); MIC (Candida albicans A9540 [1]; A9540, pH 7, read-out: MICs, Candida albicans A9540): 25 µg/mL (≈ 32.6 µM); MIC ([2]; pH 7, read-out: MICs, Candida paratropicalis A25825): 25 µg/mL (≈ 32.6 µM); MIC ([5]; A25812, pH 7, read-out: MICs, Candida tropicalis A25812): 25 µg/mL (≈ 32.6 µM); MIC ([6]; A15053, pH 7, read-out: MICs, Cryptococcus neoformans A15053): > 50 µg/mL; MIC ([10]; A26771, pH 7, read-out: MICs, Trichophyton mentagrophytes A26771): > 50 µg/mL; MIC (M. gypseum A26835): > 50 µg/mL; MIC (M. canis A26834): > 50 µg/mL |
